Legend:
Type in all cases: in vivo
[1] = test system: Yellow Fever Mosquito (Aedes aegypti, AEDSAE); test: Bioassay on Yellow Fever Mosquito (YFM), 96-well plate larval assay; details: Species YFM (Yellow Fever Mosquito)
Procedure, shortened: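 Compound stocks at 4000 ppm in DMSO were diluted with 90:10 water/acetone, and 15 μL aliquots were dispensed into six replicate plates. About 1-day-old larvae in liver-powder water were added per well. Plates were covered and held at room temperature for 3 days before each well was scored for mortality.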

[2] = test system: Beet Armyworm (Spodoptera exigua, LAPHEG); test: Bioassay on Beet Armyworm (BAW), 128-well diet tray assay; details: Species BAW (Beet Armyworm), read-out: BAW (Biological Results, rating)
Procedure, shortened: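 Artificial diet surface-treated with 50 μg/cm^2 test molecule in 90:10 acetone-water, dried, then infested with one to five second instar larvae per well. Held covered and vented at 25° C., 14:10 light-dark for five to seven days; percent mortality recorded per well and averaged over eight wells.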

[3] = test system: Cabbage Looper (Trichoplusia ni, TRIPNI); test: Bioassay on Cabbage Looper (CL), 128-well diet tray assay; details: Trichoplusia ni; Species CL (Cabbage Looper); read-out: CL (Biological Results, rating)
Procedure, shortened: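 Test molecule is dissolved in 90:10 acetone-water and applied at 50 μg/cm^2 onto artificial diet, then dried. One to five second-instar larvae go into each of eight wells. Trays, sealed but vented, stay at 25° C., 14:10 light-dark, five to seven days, after which mortality is averaged.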

[4] = test system: Green Peach Aphid (Myzus persicae, MYZUPE); test: Bioassay on Green Peach Aphid (GPA), foliar spray on infested cabbage seedlings; details: foliar, 72 h, Species GPA (Green Peach Aphid), read-out: GPA (Biological Results, rating)
Description: Certain molecules disclosed in this document were tested against GPA using procedures described in the following example. In the reporting of the results, the “GPA & YFM Rating Table” was used (See Table Section).
Cabbage seedlings grown in 3-inch pots, with 2-3 small (3-5 cm) true leaves, were used as test substrate. The seedlings were infested with 20-50 GPA (wingless adult and nymph stages) one day prior to chemical application. Four pots with individual seedlings were used for each treatment. Test molecules (2 mg) were dissolved in 2 mL of acetone/methanol (1:1) solvent, forming stock solutions of 1000 ppm test molecule. The stock solutions were diluted 5× with 0.025% Tween 20 in water to obtain the solution at 200 ppm test molecule. A hand-held aspirator-type sprayer was used for spraying a solution to both sides of […] leaves until runoff. Reference plants (solvent check) were sprayed with the diluent only containing 20% by volume of acetone/methanol (1:1) solvent. Treated plants were held in a holding room for three days at approximately 25° C. and ambient relative humidity (RH) prior to grading. Evaluation was conducted by counting the number of live aphids per plant under a microscope. Percent control was measured using Abbott's correction formula (W. S. Abbott, “A Method of Computing the Effectiveness of an Insecticide” 3. Econ. Entomol. 18 (1925), pp. 265-267) as follows. Corrected % Control=100*(X−Y)/X where X=No. of live aphids on solvent check plants and Y=No. of live aphids on treated plants. The results are indicated in the table entitled “Table ABC: Biological Results” (See Table Section).

SMILES: O=C(Nc1ccc(F)cc1)c1cc(NC(=O)[C@H]2[C@H](c3cc(Cl)cc(Cl)c3)C2(Cl)Cl)ccc1Cl (relative stereo) [F1, trans-2-chloro-5-(2,2-dichloro-3-(3,5-dichlorophenyl)cyclopropane-1-carboxamido)-N-(4-fluorophenyl)benzamide]
- YFM (Biological Results, rating) [1]: A (80-100)
- pest or weed control at 50 µg/cm2 [2]: 50 to 100%
- pest or weed control at 50 µg/cm2 [3]: 50 to 100%
- pest or weed control at 200 µg/mL [4]: 0 to 80%

SMILES: O=C(Nc1ccc(F)cc1)c1cccc(NC(=O)[C@H]2[C@H](c3cc(Cl)cc(Cl)c3)C2(Cl)Cl)c1 (relative stereo) [F2, trans-3-(2,2-Dichloro-3-(3,5-dichlorophenyl)cyclopropane-1-carboxamido)-N-(4-fluorophenyl)benzamide]
- YFM (Biological Results, rating) [1]: A (80-100)
- pest or weed control at 50 µg/cm2 [2]: 50 to 100%
- pest or weed control at 50 µg/cm2 [3]: 50 to 100%
- pest or weed control at 200 µg/mL [4]: 0 to 80%

SMILES: Cc1ccccc1NC(=O)c1cc(NC(=O)[C@H]2[C@H](c3cc(Cl)cc(Cl)c3)C2(Cl)Cl)ccc1Cl (relative stereo) [F9, trans-2-Chloro-5-(2,2-dichloro-3-(3,5-dichlorophenyl)cyclopropane-1-carboxamido)-N-(o-tolyl)benzamide]
- YFM (Biological Results, rating) [1]: A (80-100)
- pest or weed control at 50 µg/cm2 [2]: 50 to 100%
- pest or weed control at 50 µg/cm2 [3]: 50 to 100%
- pest or weed control at 200 µg/mL [4]: 80 to 100%

SMILES: Cc1ccc(NC(=O)[C@H]2[C@H](c3cc(Cl)cc(Cl)c3)C2(Cl)Cl)cc1C(=O)Nc1ccc(F)cc1 (relative stereo) [F10, trans-5-(2,2-Dichloro-3-(3,5-dichlorophenyl)cyclopropane-1-carboxamido)-N-(4-fluorophenyl)-2-methylbenzamide]
- YFM (Biological Results, rating) [1]: A (80-100)
- pest or weed control at 50 µg/cm2 [2]: 50 to 100%
- pest or weed control at 50 µg/cm2 [3]: 50 to 100%
- pest or weed control at 200 µg/mL [4]: 0 to 80%

SMILES: O=C(Nc1ccc(F)cc1)c1cc(NC(=O)[C@H]2[C@H](c3cc(Cl)c(Cl)c(Cl)c3)C2(Cl)Cl)ccc1Cl (relative stereo) [F13, trans-2-Chloro-5-(2,2-dichloro-3-(3,4,5-trichlorophenyl)cyclopropane-1-carboxamido)-N-(4-fluorophenyl)benzamide]
- YFM (Biological Results, rating) [1]: A (80-100)
- pest or weed control at 50 µg/cm2 [2]: 50 to 100%
- pest or weed control at 50 µg/cm2 [3]: 50 to 100%
- pest or weed control at 200 µg/mL [4]: 0 to 80%

SMILES: O=C(Nc1ccc(F)cc1)c1cc(NC(=O)[C@H]2[C@H](c3ccc(Cl)c(Cl)c3)C2(Cl)Cl)ccc1Cl (relative stereo) [F14, trans-2-Chloro-5-(2,2-dichloro-3-(3,4-dichlorophenyl)cyclopropane-1-carboxamido)-N-(4-fluorophenyl)benzamide]
- YFM (Biological Results, rating) [1]: A (80-100)
- pest or weed control at 50 µg/cm2 [2]: 50 to 100%
- pest or weed control at 50 µg/cm2 [3]: 50 to 100%
- pest or weed control at 200 µg/mL [4]: 80 to 100%

SMILES: O=C(Nc1ccc(F)cc1)c1cccc(NC(=O)[C@H]2[C@H](c3cc(Cl)cc(Cl)c3)C2(Cl)Cl)c1F (relative stereo) [F15, trans-3-(2,2-Dichloro-3-(3,5-dichlorophenyl)cyclopropane-1-carboxamido)-2-fluoro-N-(4-fluorophenyl)benzamide]
- YFM (Biological Results, rating) [1]: A (80-100)
- pest or weed control at 50 µg/cm2 [2]: 50 to 100%
- pest or weed control at 50 µg/cm2 [3]: 50 to 100%
- pest or weed control at 200 µg/mL [4]: 0 to 80%

SMILES: O=C(Nc1ccccc1)c1cc(NC(=O)[C@H]2[C@H](c3cc(Cl)cc(Cl)c3)C2(Cl)Cl)ccc1Cl (relative stereo) [F16, trans-2-Chloro-5-(2,2-Dichloro-3-(3,5-dichlorophenyl)cyclopropane-1-carboxamido)-N-phenylbenzamide]
- YFM (Biological Results, rating) [1]: A (80-100)
- pest or weed control at 50 µg/cm2 [2]: 50 to 100%
- pest or weed control at 50 µg/cm2 [3]: 50 to 100%
- pest or weed control at 200 µg/mL [4]: 0 to 80%

SMILES: O=C(Nc1ccc(F)cc1F)c1cc(NC(=O)[C@H]2[C@H](c3cc(Cl)cc(Cl)c3)C2(Cl)Cl)ccc1Cl (relative stereo) [F18, trans-2-Chloro-5-(2,2-dichloro-3-(3,5-dichlorophenyl)cyclopropane-1-carboxamido)-N-(2,4-difluorophenyl)benzamide]
- YFM (Biological Results, rating) [1]: A (80-100)
- pest or weed control at 50 µg/cm2 [2]: 50 to 100%
- pest or weed control at 50 µg/cm2 [3]: 50 to 100%
- pest or weed control at 200 µg/mL [4]: 80 to 100%

SMILES: CN(C(=O)c1cc(NC(=O)[C@H]2[C@H](c3cc(Cl)cc(Cl)c3)C2(Cl)Cl)ccc1Cl)c1ccc(F)cc1 (relative stereo) [F19, trans-2-Chloro-5-(2,2-dichloro-3-(3,5-dichlorophenyl)cyclopropane-1-carboxamido)-N-(4-fluorophenyl)-N-methylbenzamide]
- YFM (Biological Results, rating) [1]: A (80-100)
- pest or weed control at 50 µg/cm2 [2]: 50 to 100%
- pest or weed control at 50 µg/cm2 [3]: 50 to 100%
- pest or weed control at 200 µg/mL [4]: 80 to 100%

SMILES: O=C(Nc1cccc(F)c1)c1cc(NC(=O)[C@H]2[C@H](c3cc(Cl)cc(Cl)c3)C2(Cl)Cl)ccc1Cl (relative stereo) [F20, trans-2-Chloro-5-(2,2-dichloro-3-(3,5-dichlorophenyl)cyclopropane-1-carboxamido)-N-(3-fluorophenyl)benzamide]
- YFM (Biological Results, rating) [1]: A (80-100)
- pest or weed control at 50 µg/cm2 [2]: 50 to 100%
- pest or weed control at 50 µg/cm2 [3]: 50 to 100%
- pest or weed control at 200 µg/mL [4]: 0 to 80%

SMILES: N#Cc1cccc(NC(=O)c2cc(NC(=O)[C@H]3[C@H](c4cc(Cl)cc(Cl)c4)C3(Cl)Cl)ccc2Cl)c1 (relative stereo) [F21, trans-2-Chloro-N-(3-cyanophenyl)-5-(2,2-dichloro-3-(3,5-dichlorophenyl)cyclopropane-1-carboxamido)benzamide]
- YFM (Biological Results, rating) [1]: A (80-100)
- pest or weed control at 50 µg/cm2 [2]: 50 to 100%
- pest or weed control at 50 µg/cm2 [3]: 50 to 100%
- pest or weed control at 200 µg/mL [4]: 0 to 80%

SMILES: O=C(Nc1cccc(F)c1F)c1cc(NC(=O)[C@H]2[C@H](c3cc(Cl)cc(Cl)c3)C2(Cl)Cl)ccc1Cl (relative stereo) [F22, trans-2-Chloro-5-(2,2-dichloro-3-(3,5-dichlorophenyl)cyclopropane-1-carboxamido)-N-(2,3-difluorophenyl)benzamide]
- YFM (Biological Results, rating) [1]: A (80-100)
- pest or weed control at 50 µg/cm2 [2]: 50 to 100%
- pest or weed control at 50 µg/cm2 [3]: 50 to 100%
- pest or weed control at 200 µg/mL [4]: 80 to 100%

SMILES: O=C(Nc1ccc(F)c(F)c1)c1cc(NC(=O)[C@H]2[C@H](c3cc(Cl)cc(Cl)c3)C2(Cl)Cl)ccc1Cl (relative stereo) [F23, trans-2-Chloro-5-(2,2-dichloro-3-(3,5-dichlorophenyl)cyclopropane-1-carboxamido)-N-(3,4-difluorophenyl)benzamide]
- YFM (Biological Results, rating) [1]: A (80-100)
- pest or weed control at 50 µg/cm2 [2]: 50 to 100%
- pest or weed control at 50 µg/cm2 [3]: 50 to 100%
- pest or weed control at 200 µg/mL [4]: 0 to 80%

SMILES: O=C(Nc1c(F)cc(F)cc1F)c1cc(NC(=O)[C@H]2[C@H](c3cc(Cl)cc(Cl)c3)C2(Cl)Cl)ccc1Cl (relative stereo) [F24, trans-2-Chloro-5-(2,2-dichloro-3-(3,5-dichlorophenyl)cyclopropane-1-carboxamido)-N-(2,4,6-trifluorophenyl)benzamide]
- YFM (Biological Results, rating) [1]: A (80-100)
- pest or weed control at 50 µg/cm2 [2]: 50 to 100%
- pest or weed control at 50 µg/cm2 [3]: 50 to 100%
- pest or weed control at 200 µg/mL [4]: 80 to 100%

SMILES: O=C(Nc1c(F)cccc1F)c1cc(NC(=O)[C@H]2[C@H](c3cc(Cl)cc(Cl)c3)C2(Cl)Cl)ccc1Cl (relative stereo) [F25, trans-2-Chloro-5-(2,2-dichloro-3-(3,5-dichlorophenyl)cyclopropane-1-carboxamido)-N-(2,6-difluorophenyl)benzamide]
- YFM (Biological Results, rating) [1]: A (80-100)
- pest or weed control at 50 µg/cm2 [2]: 50 to 100%
- pest or weed control at 50 µg/cm2 [3]: 50 to 100%
- pest or weed control at 200 µg/mL [4]: 80 to 100%

SMILES: O=C(Nc1ccncc1)c1cc(NC(=O)[C@H]2[C@H](c3cc(Cl)cc(Cl)c3)C2(Cl)Cl)ccc1Cl (relative stereo) [F26, trans-2-Chloro-5-(2,2-dichloro-3-(3,5-dichlorophenyl)cyclopropane-1-carboxamido)-N-(pyridin-4-yl)benzamide]
- YFM (Biological Results, rating) [1]: A (80-100)
- pest or weed control at 50 µg/cm2 [2]: 50 to 100%
- pest or weed control at 50 µg/cm2 [3]: 50 to 100%
- pest or weed control at 200 µg/mL [4]: 0 to 80%

SMILES: O=C(Nc1ccc(F)cc1)c1ccc(Cl)c(NC(=O)[C@H]2[C@H](c3cc(Cl)cc(Cl)c3)C2(Cl)Cl)c1 (relative stereo) [F130, trans-4-Chloro-3-(2,2-dichloro-3-(3,5-dichlorophenyl)cyclopropane-1-carboxamido)-N-(4-fluorophenyl)benzamide]
- YFM (Biological Results, rating) [1]: B (More than 0-Less than 80)
- pest or weed control at 50 µg/cm2 [3]: 50 to 100%
- pest or weed control at 200 µg/mL [4]: 0 to 80%

From patent US10219516B2, “Molecules having pesticidal utility, and intermediates, compositions, and processes, related thereto” (priority 2015, dated 2019)
